Laboratory results from EP3057949B1, “SECONDARY ALCOHOL QUINOLINYL MODULATORS OF ROR GAMMA T” (Janssen Pharmaceutica NV, priority 2013, dated 2015).

Tests used:
[1] = target: T1, human RORγt ligand binding domain (RORγt LBD) (Homo sapiens, UniProt P51449); assay: ThermoFluor® Assay (RORγt thermal shift binding); settings: 0.065 mg/mL RORγt, 60 µM 1,8-ANS, pH 7.0; estimated from concentration response curves
T1 construct: His-tag (N); TurboTEV protease cleavage site (ENLYFQG) (N); made in house; host or cells: E. coli (pHIS1, modified pET vector)
T1 sequence (P51449 258-518): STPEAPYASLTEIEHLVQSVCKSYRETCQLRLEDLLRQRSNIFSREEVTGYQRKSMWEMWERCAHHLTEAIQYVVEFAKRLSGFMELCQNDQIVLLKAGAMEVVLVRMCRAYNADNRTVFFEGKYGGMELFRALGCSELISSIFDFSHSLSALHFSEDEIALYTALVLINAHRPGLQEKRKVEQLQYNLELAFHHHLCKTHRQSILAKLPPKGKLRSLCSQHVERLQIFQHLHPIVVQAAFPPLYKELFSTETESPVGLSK
Outline: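 Thermal shift of 0.065 mg/mL RORγt with 60 µM 1,8-ANS in 100 mM Hepes pH 7.0, 10 mM NaCl, 2.5 mM GSH, 0.002% Tween-20, heated at 1 °C/min; fluorescence at 500 nm. KD estimated from concentration-response of ΔTm.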

full-length human RORγt = target: T2, full-length human RORγt (Homo sapiens, UniProt P51449); assay: RORγt (full-length human) Reporter Assay (GAL4 luciferase, HEK293T cells); format: cell-based; settings: for IC50: overnight (16 to 20 hours) incubation, read-out: RORγt (FL) Reporter Assay, IC50
T2 construct: expressed in transfected cells; host or cells: HEK293T
T2 sequence (P51449 1-497 isoform P51449-2): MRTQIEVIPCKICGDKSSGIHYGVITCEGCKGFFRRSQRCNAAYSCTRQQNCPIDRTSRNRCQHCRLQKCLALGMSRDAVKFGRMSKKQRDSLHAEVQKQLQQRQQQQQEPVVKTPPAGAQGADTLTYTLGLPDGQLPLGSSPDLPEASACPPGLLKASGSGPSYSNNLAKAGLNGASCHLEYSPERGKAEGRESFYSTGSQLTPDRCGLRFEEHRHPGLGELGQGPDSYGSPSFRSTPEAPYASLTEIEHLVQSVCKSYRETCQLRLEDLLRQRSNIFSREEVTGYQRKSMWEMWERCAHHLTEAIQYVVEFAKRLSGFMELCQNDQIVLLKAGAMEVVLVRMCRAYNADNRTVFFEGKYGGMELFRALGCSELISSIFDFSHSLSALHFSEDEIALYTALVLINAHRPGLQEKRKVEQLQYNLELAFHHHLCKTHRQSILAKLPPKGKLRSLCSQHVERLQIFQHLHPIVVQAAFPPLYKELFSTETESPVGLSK
Procedure: Compounds were assessed for RORgt functional modulation using either the RORgt ligand binding domain (LBD) reporter assay, or the RORgt full-length (FL) reporter assay.
A reporter assay was used to test functional activity of RORγt modulatory compounds on transcriptional activation driven by full-length human RORγt. Cells used in this assay were transiently co-transfected with three different plasmids, one expressing the GAL4-DNA binding domain (DBD)-RORγt fusion protein under control of a CMV promoter (NH2-Gal4-DBD:RORC-COOH in pCMV-BD, Stratagene #211342), and two reporter plasmids - the firefly luciferase reporter under control of a GAL4 promoter (pFR-Luc 2x GAL4) and Renilla luciferase reporter under control of CMV promoter (pRL-CMV, Promega #E2261). The full-length coding sequence was used for human RORγt, i.e., nucleotides 142-1635 of human RORγt, transcript variant 2, NCBI Accession: NM_001001523.1 (SEQ ID NO:1). HEK293T cells were plated at 35000 per well in 96-well plate in medium of MEM with 8.6% FBS. After 18-22 hours incubation, the transfection was carried out by using a PEI solution with 170.5 ng total DNA/well (50 ng pCMV-BD-ROR plus 20 ng of pFR-Luc reporter and 0.5 ng of pRL-CMV reporter plus 100 ng Carrier DNA (Clontech # 630440) for each well). 4-6 hours after transfection, cells were treated with compounds for overnight in the medium with final concentration of FBS 1.1% and DMSO 0.1%. After overnight (16 to 20 hours) incubation, media were removed and cells were lysed with 20 µL 1x Passive Lysis Buffer (Promega) for 10-15 minutes. Luminescence was measured using a BMG LUMIstar OPTIMA plate reader, after addition of 75 µL/well firefly luciferase buffer, followed by 75 µL/well Renilla luciferase buffer. To calculate the effect of compounds on RORγt activity, firefly values were normalized against values of DMSO only and values of reference compound at saturating concentration, then further normalized against Renilla signals. IC50s were generated by plotting final Renilla normalized data against compound concentration and percent inhibition was calculated against DMSO control.

| Structure (SMILES) | Kd [1] | inhibition at 0.67 µM (full-length human RORγt; HEK-293T, 0.67 µM compound concentration (footnote *), read-out: RORγt (FL) Reporter Assay, % inhibition (values marked *)) | IC50 (full-length human RORγt) | inhibition at 2 µM (full-length human RORγt; HEK-293T, 2 µM compound, read-out: RORγt (FL) Reporter Assay, % inhibition @ 2 µM) |
| --- | --- | --- | --- | --- |
| COc1nc2ccc(C(O)c3cnc(C)n3C)cc2c(Cl)c1Cc1ccc(C(F)(F)F)cc1 (single isomer, unassigned) [Example 15b, (4-Chloro-2-methoxy-3-(4-(trifluoromethyl)benzyl)quinolin-6-yl)(1,2-dimethyl-1H-imidazol-5-yl)methanol] | 69 nM | 85% | 91 nM | – |
| COc1nc2ccc(C(O)c3cnc(C)n3C)cc2c(Cl)c1Cc1ccc(C(F)(F)F)cc1 (single isomer, unassigned) [Example 15c, (4-Chloro-2-methoxy-3-(4-(trifluoromethyl)benzyl)quinolin-6-yl)(1,2-dimethyl-1H-imidazol-5-yl)methanol] | 40 nM | – | 58 nM | 96% |
